Some results are limits rather than exact numbers.

What is called IC50 is the concentration that gives 50% inhibition.

The target in the assay is T1, wt human LRRK2, catalytic site (Homo sapiens, UniProt Q5S007).
T1 construct: wt human LRRK2, catalytic site; purchased ThermoFisher/USA
T1 sequence (Q5S007 1879-2138 limits assumed): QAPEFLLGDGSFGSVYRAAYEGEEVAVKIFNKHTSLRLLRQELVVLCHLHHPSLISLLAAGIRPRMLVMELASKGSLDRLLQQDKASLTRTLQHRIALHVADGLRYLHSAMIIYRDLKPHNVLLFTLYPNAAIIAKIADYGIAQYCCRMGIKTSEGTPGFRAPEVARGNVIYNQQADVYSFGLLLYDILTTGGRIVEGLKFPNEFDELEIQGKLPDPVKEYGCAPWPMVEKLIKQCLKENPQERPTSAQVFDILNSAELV
The assay is described as follows: TR-FRET LanthaScreen Tb Kinase Activity Assay (Example 71). To be noted: compounds of Table 4, 38 uM ATP, method names only wt human LRRK2, read-out: IC50, Inhibitory Activity Toward LRRK2 (Wt) and LRRK2 (G2019). The format is biochemical. As to the method:
The compounds in Table 4 were tested for their inhibitory effect on LRRK2 kinases according to the following procedures.
The basic protocol for TR-FRET LanthaScreen Tb Kinase Activity Assay inhibitor studies were performed as follows. LanthaScreen Kinase Activity Assays (ThermoFisher/USA) to evaluate inhibitors were performed by addition of 100 nl of test compound in corresponding DMSO dilutions/5 μl of kinase/fluorescein-ERM(LRRKtide) peptide mixture, 5 μl of ATP into 384 well small volume plates. After incubation for 120 minutes at room temperature, the detection reagents containing Tb-anti-pLRRKtide antibody were added to monitor phosphrylation level of peptide. Then, after 60 min minutes incubation at room temperature plates were read in Envision. Data analysis of emission ratios was according to LanthaScreen Tb Kinase Activity Assay protocol.
Kinase and assay components were adjusted to final concentrations according to the kit protocol. For LRRK2: 2 nM wt human LRRK2, catalytic site, catalytic site (ThermoFisher/USA), 400 nM peptide, 38 uM ATP in 1× Kinase Buffer A.
Basic protocol for TR-FRET LanthaScreen Tb Kinase Activity Assay inhibitor studies involved two steps:
Enzymatic step: Addition of 100 nl of test compound in corresponding DMSO dilutions, 5 μl of kinase/substrate mixture, 5 μl of ATP into 384 well small volume plates. Incubation for 120 minutes at room temperature.
Detection step: Addition of 10 μl EDTA & antibody, read plate after 60 minutes. Data analysis of emission ratios according to KinEASE assay protocol.
A general note: TR-FRET usually uses a lanthanide donor and a delayed reading to cut background.
Take `Fc1cc(OC(F)F)cc(F)c1C1=Nc2cn[nH]c2-c2cc(C(F)(F)F)cc3[nH]cc1c23` [Compound 384, 3-(4-(difluoromethoxy)-2,6-difluorophenyl)-9-(trifluoromethyl)-1,7-dihydropyrazolo[3′,4′:6,7]azepino[3,4,5-cd]indole]: the IC50 lay in the range of 10 to 100 nM.

`Fc1cc(Cl)cc(F)c1C1=Nc2cn[nH]c2-c2cnn3c2N1CCC3` [Compound 385, 9-(4-chloro-2,6-difluorophenyl)-3,6,7,8-tetrahydro-2,3,5,5a,8a,10-hexaazabenzo[cd]cyclopenta[h]azulene]: the IC50 was 10 to 100 nM.

`Fc1cncc(F)c1C1=Nc2c(Cl)n[nH]c2-c2cnn3c2N1CCC3` [Compound 386, 1-chloro-9-(3,5-difluoropyridin-4-yl)-3,6,7,8-tetrahydro-2,3,5,5a,8a,10-hexaazabenzo[cd]cyclopenta[h]azulene]: the IC50 was 10 to 100 nM.

On to `Fc1cc(F)c(C2=Nc3cn[nH]c3-c3cnn4c3N2CC4)c(F)c1` [Compound 387, 3-(2,4,6-trifluorophenyl)-2,7-dihydro-1H-2a,4,6,7,9,9a-hexaazadicyclopenta[cd,f]azulene], for which the IC50 is under 10 nM.

For the compound `Fc1cc(Cl)cc(F)c1C1=Nc2cn[nH]c2-c2cnn3c2N1CC3` [Compound 388, 3-(4-chloro-2,6-difluorophenyl)-2,7-dihydro-1H-2a,4,6,7,9,9a-hexaazadicyclopenta[cd,f]azulene], the IC50 lay in the range of 10 to 100 nM.

For `Fc1ccc(Br)c(F)c1C1=Nc2cn[nH]c2-c2cnn3c2N1CC3` [Compound 389, 3-(3-bromo-2,6-difluorophenyl)-2,7-dihydro-1H-2a,4,6,7,9,9a-hexaazadicyclopenta[cd,f]azulene], the IC50 was under 10 nM.

As to `Fc1ccc(Cl)c(F)c1C1=Nc2cn[nH]c2-c2cnn3c2N1CC3` [Compound 390, 3-(3-chloro-2,6-difluorophenyl)-2,7-dihydro-1H-2a,4,6,7,9,9a-hexaazadicyclopenta[cd,f]azulene], the IC50 was under 10 nM.

With `Cc1n[nH]c2c1N=C(c1c(F)ccc(Br)c1F)N1CCn3ncc-2c31` [Compound 391, 3-(3-bromo-2,6-difluorophenyl)-5-methyl-2,7-dihydro-1H-2a,4,6,7,9,9a-hexaazadicyclopenta[cd,f]azulene], the IC50 was under 10 nM.

On to `Fc1ccc(Br)c(Cl)c1C1=Nc2cn[nH]c2-c2cnn3c2N1CC3` [Compound 392, 3-(3-bromo-2-chloro-6-fluorophenyl)-2,7-dihydro-1H-2a,4,6,7,9,9a-hexaazadicyclopenta[cd,f]azulene], for which the IC50 was under 10 nM.

For the compound `Fc1cccc(Br)c1C1=Nc2cn[nH]c2-c2cnn3c2N1CC3` [Compound 393, 3-(2-bromo-6-fluorophenyl)-2,7-dihydro-1H-2a,4,6,7,9,9a-hexaazadicyclopenta[cd,f]azulene], the IC50 fell in the range of 10 to 100 nM.

As to `N#Cc1ccc(F)c(C2=Nc3cn[nH]c3-c3cnn4c3N2CC4)c1F` [Compound 394, 3-(2,7-dihydro-1H-2a,4,6,7,9,9a-hexaazadicyclopenta[cd,f]azulen-3-yl)-2,4-difluorobenzonitrile], the IC50 was under 10 nM.

Take `Cc1n[nH]c2c1N=C(c1c(F)cccc1Cl)N1CCn3ncc-2c31` [Compound 395, 3-(2-chloro-6-fluorophenyl)-5-methyl-2,7-dihydro-1H-2a,4,6,7,9,9a-hexaazadicyclopenta[cd,f]azulene]: the IC50 was under 10 nM.

For `Cc1ccc(F)c(C2=Nc3c(C)n[nH]c3-c3cnn4c3N2CCC4)c1F` [Compound 396, 9-(2,6-difluoro-3-methylphenyl)-1-methyl-3,6,7,8-tetrahydro-2,3,5,5a,8a,10-hexaazabenzo[cd]cyclopenta[h]azulene], the IC50 is under 10 nM.

For the compound `Cc1n[nH]c2c1N=C(c1c(F)ccc(C#N)c1F)N1CCCn3ncc-2c31` [Compound 397, 2,4-difluoro-3-(1-methyl-3,6,7,8-tetrahydro-2,3,5,5a,8a,10-hexaazabenzo[cd]cyclopenta[h]azulen-9-yl)benzonitrile], the IC50 is under 10 nM.

For `Cc1n[nH]c2c1N=C(c1c(F)cc(OC(F)F)cc1F)N1CCn3ncc-2c31` [Compound 398], the IC50 is under 10 nM.

Consider `Fc1ccc(C2CC2)c(F)c1C1=Nc2cn[nH]c2-c2cnn3c2N1CC3` [Compound 399, 3-(3-cyclopropyl-2,6-difluorophenyl)-2,7-dihydro-1H-2a,4,6,7,9,9a-hexaazadicyclopenta[cd,f]azulene], for which the IC50 is under 10 nM.

For `Cc1n[nH]c2c1N=C(c1c(F)cccc1F)c1c[nH]c3cc(Cl)cc-2c13` [Compound 400, 9-chloro-3-(2,6-difluorophenyl)-5-methyl-1,7-dihydropyrazolo[3′,4′:6,7]azepino[3,4,5-cd]indole], the IC50 is under 10 nM.

On to `Fc1cccc(F)c1C1=Nc2cn[nH]c2-c2cc(C(F)(F)F)cc3[nH]cc1c23` [Compound 401, 3-(2,6-difluorophenyl)-9-(trifluoromethyl)-1,7-dihydropyrazolo[3′,4′:6,7]azepino[3,4,5-cd]indole], for which the IC50 is under 10 nM.

Take `Fc1cc(Cl)cc(F)c1C1Nc2cn[nH]c2-c2cnn3c2N1CCC3` (stereo not drawn) [Compound 402, 9-(4-chloro-2,6-difluorophenyl)-3,6,7,8,9,10-hexahydro-2,3,5,5a,8a,10-hexaazabenzo[cd]cyclopenta[h]azulene]: the IC50 is 100 to 1000 nM.

For `Fc1cc2ncccc2c(F)c1C1=Nc2cn[nH]c2-c2cnn3c2N1CC3` [Compound 404, 3-(5,7-difluoroquinolin-6-yl)-2,7-dihydro-1H-2a,4,6,7,9,9a-hexaazadicyclopenta[cd,f]azulene], the IC50 was 10 to 100 nM.

On to `N#Cc1ccc(F)c(C2=Nc3cn[nH]c3-c3cc(C(F)(F)F)cc4[nH]cc2c34)c1F` [Compound 405, 2,4-difluoro-3-(9-(trifluoromethyl)-1,7-dihydropyrazolo[3′,4′:6,7]azepino[3,4,5-cd]indol-3-yl)benzonitrile], for which the IC50 is under 10 nM.

For `OCc1cc(F)c(C2=Nc3cn[nH]c3-c3cc(C(F)(F)F)cc4[nH]cc2c34)c(F)c1` [Compound 406, (3,5-difluoro-4-(9-(trifluoromethyl)-1,7-dihydropyrazolo[3′,4′:6,7]azepino[3,4,5-cd]indol-3-yl)phenyl)methanol], the IC50 was under 10 nM.

`OCc1ccc(F)c(C2=Nc3cn[nH]c3-c3cc(C(F)(F)F)cc4[nH]cc2c34)c1F` [Compound 407, (2,4-difluoro-3-(9-(trifluoromethyl)-1,7-dihydropyrazolo[3′,4′:6,7]azepino[3,4,5-cd]indol-3-yl)phenyl)methanol]: the IC50 is under 10 nM.

Turning to `COc1cc(F)c(C2=Nc3cn[nH]c3-c3cc(C(F)(F)F)cc4[nH]cc2c34)c(F)c1` [Compound 408], the IC50 lay in the range of 10 to 100 nM.

For the origin of these results see patent publication US20240067655A1 (NEURON23, INC., priority 2020, published 2024).
